From article PMC8854749, “Celastrol Inhibits Canine Mammary Tumor Cells by Inducing Apoptosis via the Caspase Pathway” (Frontiers in Veterinary Science, 2022)

Key:
Assay type in all cases: cell-based, canine
CIPp cells [1] = assay: Colony formation assay; details: 0.3 μM or 0.9 μM for 24 h, then 10 days, vs control group
Description: (§1) CMT-7364 and CIPp cells were seeded in a 6-well cell culture plate at a concentration of 1 × 10^4 cells/well until they became adherent, cultured for another 24 h with serum-containing medium with 0 μM celastrol (control group), 0.3 μM celastrol, and 0.9 μM celastrol, respectively. Cells were treated with 0.25% trypsin (Gibco, NY, United States) and resuspended into single cells, each group of cells was seeded in a 6-well cell culture plate at 400 cells/well concentration, and cultured for 10 consecutive days. […] The cells were stained with 0.1% crystal violet, and photographed with a digital camera, followed by calculating the number of colonies.

CMT-7364 cells [2] = assay: Colony formation assay; details: 0.3 μM or 0.9 μM for 24 h, then 10 days, vs control group
Description: as §1

CIPp cells [3] = assay: Cell cycle distribution, PI staining, flow cytometry; details: 24 h (0 μM: 12.0%)
Description: (§2) To investigate whether celastrol inhibits the proliferation of canine mammary tumor cells by regulating the cell cycle, we treated canine mammary tumor cells with celastrol for 24 h, then stained cells with PI followed by flow cytometry to detect the percentage of different cell cycle phases. […] Furthermore, we detected the expression of mRNA and protein of cell cycle–related factors by qPCR and Western blotting.

CMT-7364 cells [4] = assay: as above; details: 24 h (0 μM: 5.6%)
Description: as §2

CIPp cells [5] = assay: Cell migration (wound healing) assay; details: 0.9 μM, 24 h, relative to cells without celastrol
Description: (§3) CMT-7364 and CIPp cell suspensions were uniformly seeded in a 6-well cell culture plate at a concentration of 1 × 10^5 cells/well. After the cells were fully confluent (more than 90 % of confluence), a 200-μl sterile pipette tip was used to scratch a straight line in the cells of each well. PBS was used to wash away the cell debris and floated cells, and 10% serum-containing medium (control group) and 10% serum-containing medium with celastrol (0.3 μM or 0.9 μM) (test group) were added, respectively, then cells were incubated for 24 h in an incubator. Mitomycin C (1 μM) was used to inhibit cell proliferation. Images of cell migration (wound healing) of the same field were taken with an inverted microscope at 0 and 24 h time points, respectively, followed by analyzing the cell migration rate with ImageJ software (version 1.8.0, United States). In brief, 6–8 horizontal lines were randomly drawn in the wound area to calculate the average value of the distance between cells. The migration rate = [(Distance celastrol0h-Distance celastrol24h) / (Distance control0h-Distance control24h)] × 100%.

CMT-7364 cells [6] = assay: Cell migration (wound healing) assay; details: 0.9 μM, 24 h, relative to cells without celastrol
Description: as §3

CIPp cells [7] = assay: qPCR of Caspase-3, Caspase-9, p21, p27 mRNA (2^-ΔΔCt, β-actin reference)
Description: (§4) After CMT-7364 and CIPp cells were treated with or without 0.9 μM celastrol for 24 h, TRIzol was used to isolate the total RNA of the cells. The RNA was then reverse transcribed into cDNA using a reverse transcriptase kit. A 20 μl reaction system was prepared according to the manufacturer's instructions and tested in the Real-Time PCR System (Long Gene Q1000, China). The results were analyzed by the 2^−ΔΔCt method: ΔΔCt = (target gene Ct of the experimental group-internal reference gene Ct of the experimental group)-(target gene Ct of the control group-internal reference gene Ct of the control group), β-actin was the internal reference gene.

CMT-7364 cells [8] = assay: as above
Description: as §4

MDCK cells = assay: Cell Counting Kit-8 (CCK-8) cell viability, non-tumor cell line; details: for IC50: Canis lupus familiaris, MDCK cells (non-tumor canine cell line), CCK-8
Description: CMT-7364, CIPp, and MDCK cells were plated in a 96-well plate with 2,000 cells per well and maintained in 5% CO2 at 37°C for 24 h until the cells adhered to the bottom. Then the medium was removed, the new media containing different concentrations (0, 0.1, 0.4, 0.6, 0.8, 1.2, and 1.6 μM) of celastrol were added, and incubated for 12, 24, 36, and 48 h. Ten microliters of the cell counting kit-8 (CCK-8) were added to each well for 1 h incubation. At each time point, the OD value was read by a microplate reader at 450 nm wavelength, and the cell viability with each drug concentration at different time points was calculated: cell relative viability=[(OD 450celastrol-OD 450blank) / (OD 450control-OD 450blank)] × 100%.

[9] = CIPp cells, 0.9 μM, 24 h, qPCR, vs control
[10] = CMT-7364, 0.9 μM celastrol, SYBR
[11] = CMT-7364 cells, 0.9 μM, 24 h, qPCR, vs control
[12] = test 1, CMT-7364 cells, 0.9 μM, instrument sheet, CMT-7364 control RQ 1

## CC1=C(O)C(=O)C=C2C1=CC=C1[C@@]2(C)CC[C@@]2(C)[C@@H]3C[C@](C)(C(=O)O)CC[C@]3(C)CC[C@]12C [celastrol, Celastrol]
CIPp cells [1]
  formation of colonies: significantly inhibited the formation of colonies
CMT-7364 cells [2]
  formation of colonies: significantly inhibited the formation of colonies
CIPp cells [3]; 0.3 μM
  percentage of cell cycle G2/M phase: 21.9%
CIPp cells [3]; 0.9 μM
  percentage of cell cycle G2/M phase: 34.4%
CMT-7364 cells [4]; 0.3 μM
  percentage of cell cycle G2/M phase: 20.3%
CMT-7364 cells [4]; 0.9 μM
  percentage of cell cycle G2/M phase: 32.7%
CIPp cells [5]
  migration rate: 52.00 ± 1.73%
CMT-7364 cells [6]
  migration rate: 55.33 ± 4.91%
CIPp cells [7]; [9]
  mRNA expression level of Caspase-3: significantly up-regulated
  mRNA expression level of Caspase-9: significantly up-regulated
  mRNA expression level of p21: up-regulated
  mRNA expression level of p27: up-regulated
CIPp cells [7]; CIPp, 0.9 μM celastrol, SYBR
  RQ Max, caspase-9: 2.2
  RQ Max, p-21: 155.13
  RQ Max, p-27: 4.26
  RQ Max, β-actin: 0.51
  RQ Min, caspase-9: 0.78
  RQ Min, p-21: 3.13
  RQ Min, p-27: 1.54
  RQ Min, β-actin: 0.16
  RQ, caspase-9: 1.31
  RQ, p-21: 22.02
  RQ, p-27: 2.56
  RQ, β-actin: 0.29
CIPp cells [7]; test 1, CIPp cells, 0.9 μM, instrument sheet, calibrator CMT-7364 control RQ 1, CIPp control RQ 0.41
  RQ, caspase-9: 0.44
CIPp cells [7]; test 1, CIPp cells, 0.9 μM, instrument sheet, calibrator CMT-7364 control RQ 1, CIPp control RQ 0.46
  RQ, caspase-3: 0.42
CIPp cells [7]; test 1, CIPp cells, 0.9 μM, instrument sheet, calibrator CMT-7364 control RQ 1, CIPp control RQ 0.49
  RQ, p-21: 0.27
CIPp cells [7]; test 1, CIPp cells, 0.9 μM, instrument sheet, calibrator CMT-7364 control RQ 1, CIPp control RQ 0.59
  RQ, p-27: 0.17
CIPp cells [7]; test 2, CIPp cells, 0.9 μM, instrument sheet, calibrator CMT-7364 0.9 μM celastrol RQ 1, CIPp control RQ 156.08
  RQ, caspase-9: 8.49
CIPp cells [7]; test 2, CIPp cells, 0.9 μM, instrument sheet, calibrator CMT-7364 0.9 μM celastrol RQ 1, CIPp control RQ 156.97
  RQ, p-21: 12.17
CIPp cells [7]; test 2, CIPp cells, 0.9 μM, instrument sheet, calibrator CMT-7364 0.9 μM celastrol RQ 1, CIPp control RQ 162.87
  RQ, p-27: 12.46
CMT-7364 cells [8]; [10]
  RQ Max, caspase-9: 2.21
  RQ Max, p-27: 1.96
  RQ Max, β-actin: 1.84
  RQ Min, caspase-9: 0.45
  RQ Min, p-21: 0
  RQ Min, p-27: 0.51
  RQ Min, β-actin: 0.54
  RQ, caspase-9: 1
  RQ, p-21: 1
  RQ, p-27: 1
  RQ, β-actin: 1
CMT-7364 cells [8]; [11]
  mRNA expression level of Caspase-3: significantly up-regulated
  mRNA expression level of Caspase-9: significantly up-regulated
  mRNA expression level of p21: up-regulated
  mRNA expression level of p27: up-regulated
CMT-7364 cells [8]; [12]
  RQ, caspase-3: 0.26
  RQ, caspase-9: 0.29
  RQ, p-21: 0.53
  RQ, p-27: 0.19
CMT-7364 cells [8]; test 2, CMT-7364 cells, 0.9 μM, instrument sheet, this sample is the calibrator (ΔΔCt 0.00), CMT-7364 control RQ 1.47
  RQ, p-27: 1
CMT-7364 cells [8]; test 2, CMT-7364 cells, 0.9 μM, instrument sheet, this sample is the calibrator (ΔΔCt 0.00), CMT-7364 control RQ 25.61
  RQ, caspase-9: 1
CMT-7364 cells [8]; test 2, CMT-7364 cells, 0.9 μM, instrument sheet, this sample is the calibrator (ΔΔCt 0.00), CMT-7364 control RQ 51.05
  RQ, p-21: 1
MDCK cells; 24 h
  IC50: 1810 nM
MDCK cells; 48 h
  IC50: 1860 nM
MDCK cells; MDCK cells, concentration <1.2 μM
  proliferation: did not significantly inhibit
